Measured values reported in ChEMBL document CHEMBL5260810, “Inhibition of bromodomain-containing protein 9 for the prevention of epigenetically-defined drug resistance” (Bioorg Med Chem Lett, 2017).

Biological target: Sodium-dependent serotonin transporter (Homo sapiens) (UniProt P31645)
Test: Displacement of [3H]-imipramine from recombinant human 5-HT transporter at 10 uM after 60 mins by scintillation counting relative to control
Details: not given

Sodium-dependent serotonin transporter (Homo sapiens), sequence (P31645 whole entry, looked up): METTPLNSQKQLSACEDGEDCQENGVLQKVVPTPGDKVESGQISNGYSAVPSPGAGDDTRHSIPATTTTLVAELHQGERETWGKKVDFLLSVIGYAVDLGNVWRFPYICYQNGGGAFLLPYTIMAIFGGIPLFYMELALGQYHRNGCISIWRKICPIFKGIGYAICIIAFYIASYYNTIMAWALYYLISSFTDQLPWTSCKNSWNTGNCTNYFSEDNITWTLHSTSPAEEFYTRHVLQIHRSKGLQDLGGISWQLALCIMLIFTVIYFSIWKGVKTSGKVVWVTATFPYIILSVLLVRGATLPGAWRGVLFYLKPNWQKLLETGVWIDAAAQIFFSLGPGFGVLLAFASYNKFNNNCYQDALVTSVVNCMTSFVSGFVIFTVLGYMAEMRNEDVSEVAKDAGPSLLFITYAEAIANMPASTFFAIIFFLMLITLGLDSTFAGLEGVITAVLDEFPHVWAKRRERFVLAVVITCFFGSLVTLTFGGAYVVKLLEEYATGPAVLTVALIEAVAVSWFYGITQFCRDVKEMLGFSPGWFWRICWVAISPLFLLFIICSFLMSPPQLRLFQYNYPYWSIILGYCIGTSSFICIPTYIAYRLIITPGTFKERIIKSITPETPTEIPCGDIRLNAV

Compound	Activity
C/C=C/Cn1cc(-c2cc(OC)c(C(=O)N3CCOCC3)cc2OC)c2cc(C)[nH]c2c1=O	4%

Test system: MEL-JUSO
Test: Cytotoxicity against human MEL-JUSO cells measured after 8 days
Format: functional, cell-based
Details: 192 h

Compound	IC50
C/C=C/Cn1cc(-c2cc(OC)c(C(=O)N3CCOCC3)cc2OC)c2cc(C)[nH]c2c1=O	2000 nM

Biological target: T1, Myosin light chain kinase (Homo sapiens) (UniProt Q32MK0)
T1 sequence (whole entry): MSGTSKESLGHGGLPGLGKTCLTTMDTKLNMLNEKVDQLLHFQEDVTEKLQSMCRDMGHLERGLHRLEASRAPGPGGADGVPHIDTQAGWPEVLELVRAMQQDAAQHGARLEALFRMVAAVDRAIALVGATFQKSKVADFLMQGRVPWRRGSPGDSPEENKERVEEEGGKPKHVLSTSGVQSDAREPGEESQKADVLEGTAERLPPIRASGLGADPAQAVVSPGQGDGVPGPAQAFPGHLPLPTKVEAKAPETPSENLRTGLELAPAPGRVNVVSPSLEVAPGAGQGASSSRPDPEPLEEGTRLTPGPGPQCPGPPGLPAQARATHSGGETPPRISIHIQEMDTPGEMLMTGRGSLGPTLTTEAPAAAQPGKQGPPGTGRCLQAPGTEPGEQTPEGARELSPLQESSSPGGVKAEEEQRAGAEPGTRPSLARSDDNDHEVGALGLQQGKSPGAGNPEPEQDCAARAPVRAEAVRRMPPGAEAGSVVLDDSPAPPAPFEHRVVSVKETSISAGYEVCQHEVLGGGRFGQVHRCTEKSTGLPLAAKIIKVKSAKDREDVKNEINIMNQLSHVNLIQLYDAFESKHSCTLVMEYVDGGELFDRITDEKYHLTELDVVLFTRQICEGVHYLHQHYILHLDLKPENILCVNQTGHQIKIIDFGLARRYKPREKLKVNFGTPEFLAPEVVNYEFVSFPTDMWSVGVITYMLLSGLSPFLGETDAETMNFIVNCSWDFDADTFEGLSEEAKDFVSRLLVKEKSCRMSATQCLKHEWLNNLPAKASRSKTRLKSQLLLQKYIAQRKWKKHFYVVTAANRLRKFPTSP
Test: Inhibition of MYLK3 (unknown origin) at 1 uM relative to control
Details: not given

Compound	inhibition
C/C=C/Cn1cc(-c2cc(OC)c(C(=O)N3CCOCC3)cc2OC)c2cc(C)[nH]c2c1=O	5%

Test system: not listed separately
Test: Cytotoxicity against human HS-Sultan cells measured after 8 days
Format: functional, cell-based
Details: 192 h

Compound	IC50
C/C=C/Cn1cc(-c2cc(OC)c(C(=O)N3CCOCC3)cc2OC)c2cc(C)[nH]c2c1=O	2000 nM

Test system: CAL-12T
Test: Cytotoxicity against human CAL-12T cells measured after 8 days
Format: functional, cell-based
Details: 192 h

Compound	IC50
C/C=C/Cn1cc(-c2cc(OC)c(C(=O)N3CCOCC3)cc2OC)c2cc(C)[nH]c2c1=O	2000 nM

Biological target: SWI/SNF-related matrix-associated actin-dependent regulator of chromatin subfamily A member 4 (Homo sapiens, UniProt P51532)
Sequence (P51532 whole entry, the tested form may be a part): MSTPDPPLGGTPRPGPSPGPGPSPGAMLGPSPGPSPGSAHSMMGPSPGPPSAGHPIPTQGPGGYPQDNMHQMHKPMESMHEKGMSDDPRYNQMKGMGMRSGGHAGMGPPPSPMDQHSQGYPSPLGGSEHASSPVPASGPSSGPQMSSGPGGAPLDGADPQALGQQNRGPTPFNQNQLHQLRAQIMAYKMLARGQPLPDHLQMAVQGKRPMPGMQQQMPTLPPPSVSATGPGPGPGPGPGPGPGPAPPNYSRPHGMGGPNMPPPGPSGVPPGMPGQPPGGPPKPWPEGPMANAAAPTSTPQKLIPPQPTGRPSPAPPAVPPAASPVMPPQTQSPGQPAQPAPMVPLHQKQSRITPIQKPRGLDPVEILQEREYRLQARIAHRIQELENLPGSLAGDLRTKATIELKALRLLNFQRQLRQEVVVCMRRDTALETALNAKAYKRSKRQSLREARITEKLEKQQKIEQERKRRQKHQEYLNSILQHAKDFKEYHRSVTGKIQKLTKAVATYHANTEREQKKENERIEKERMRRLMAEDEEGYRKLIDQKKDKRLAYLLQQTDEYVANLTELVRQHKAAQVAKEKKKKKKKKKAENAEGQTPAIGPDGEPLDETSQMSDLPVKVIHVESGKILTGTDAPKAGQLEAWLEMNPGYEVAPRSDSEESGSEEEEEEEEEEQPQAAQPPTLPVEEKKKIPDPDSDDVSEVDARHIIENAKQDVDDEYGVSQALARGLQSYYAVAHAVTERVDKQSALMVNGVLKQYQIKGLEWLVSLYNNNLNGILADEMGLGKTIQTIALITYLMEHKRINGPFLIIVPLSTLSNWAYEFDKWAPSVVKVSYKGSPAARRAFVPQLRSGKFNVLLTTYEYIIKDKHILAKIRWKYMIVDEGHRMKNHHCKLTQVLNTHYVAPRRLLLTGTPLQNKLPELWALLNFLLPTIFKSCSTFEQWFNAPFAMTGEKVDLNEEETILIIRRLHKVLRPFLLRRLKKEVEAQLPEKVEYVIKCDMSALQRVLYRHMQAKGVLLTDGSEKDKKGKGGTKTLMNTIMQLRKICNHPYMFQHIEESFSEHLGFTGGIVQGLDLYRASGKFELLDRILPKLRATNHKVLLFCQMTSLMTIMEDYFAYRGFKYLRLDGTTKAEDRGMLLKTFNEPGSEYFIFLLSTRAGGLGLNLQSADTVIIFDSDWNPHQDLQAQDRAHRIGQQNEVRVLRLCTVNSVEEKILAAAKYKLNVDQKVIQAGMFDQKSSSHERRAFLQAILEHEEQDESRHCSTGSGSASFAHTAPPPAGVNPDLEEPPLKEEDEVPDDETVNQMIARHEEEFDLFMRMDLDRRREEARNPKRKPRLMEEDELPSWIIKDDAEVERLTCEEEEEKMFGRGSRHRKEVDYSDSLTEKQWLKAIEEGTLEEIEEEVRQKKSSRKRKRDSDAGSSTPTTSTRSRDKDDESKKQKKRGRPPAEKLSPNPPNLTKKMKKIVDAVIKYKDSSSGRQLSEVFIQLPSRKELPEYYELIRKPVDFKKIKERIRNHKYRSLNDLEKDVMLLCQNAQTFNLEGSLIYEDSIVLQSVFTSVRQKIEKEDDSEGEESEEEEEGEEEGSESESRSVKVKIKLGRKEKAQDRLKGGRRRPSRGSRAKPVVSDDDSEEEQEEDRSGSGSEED
Test: Binding affinity to human partial length SMARCA4 (A1448 to S1575 residues) expressed in bacterial expression system by BROMOscan assay
Details: not given

Compound	Kd
C/C=C/Cn1cc(-c2cc(OC)c(C(=O)N3CCOCC3)cc2OC)c2cc(C)[nH]c2c1=O	> 10000 nM

Biological target: Mu-type opioid receptor (Homo sapiens) (UniProt P35372)
Sequence (P35372 whole entry): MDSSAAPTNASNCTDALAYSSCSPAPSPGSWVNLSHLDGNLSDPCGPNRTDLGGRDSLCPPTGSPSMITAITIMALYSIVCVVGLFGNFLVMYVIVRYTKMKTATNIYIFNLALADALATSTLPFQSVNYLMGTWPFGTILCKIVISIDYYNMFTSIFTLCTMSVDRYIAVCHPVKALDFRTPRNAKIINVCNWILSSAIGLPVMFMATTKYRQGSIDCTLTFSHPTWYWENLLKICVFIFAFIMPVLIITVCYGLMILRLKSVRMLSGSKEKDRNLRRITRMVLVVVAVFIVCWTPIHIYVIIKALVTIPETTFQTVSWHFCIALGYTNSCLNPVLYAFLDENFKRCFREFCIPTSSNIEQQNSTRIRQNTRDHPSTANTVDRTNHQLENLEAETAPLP
Test: Displacement of [3H]DAMGO from human recombinant mu receptor at 10 uM after 120 mins by scintillation counting analysis relative to control
Details: not given

Compound	Activity
C/C=C/Cn1cc(-c2cc(OC)c(C(=O)N3CCOCC3)cc2OC)c2cc(C)[nH]c2c1=O	9%

Biological target: 5-hydroxytryptamine receptor 2B (Homo sapiens) (UniProt P41595)
Sequence (P41595 whole entry): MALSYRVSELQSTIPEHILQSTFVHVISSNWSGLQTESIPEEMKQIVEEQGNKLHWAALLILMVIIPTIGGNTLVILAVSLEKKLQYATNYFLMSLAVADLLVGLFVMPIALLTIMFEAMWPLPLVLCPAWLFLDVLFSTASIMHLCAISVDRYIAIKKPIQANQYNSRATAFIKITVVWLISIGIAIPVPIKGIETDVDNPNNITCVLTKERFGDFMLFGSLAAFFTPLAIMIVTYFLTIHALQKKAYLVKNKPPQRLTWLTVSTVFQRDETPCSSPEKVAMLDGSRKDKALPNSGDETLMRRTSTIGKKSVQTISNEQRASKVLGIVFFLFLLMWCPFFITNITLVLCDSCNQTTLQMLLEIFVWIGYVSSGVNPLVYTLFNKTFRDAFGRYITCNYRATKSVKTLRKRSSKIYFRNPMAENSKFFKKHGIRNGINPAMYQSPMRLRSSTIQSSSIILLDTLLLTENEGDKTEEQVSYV
Test: Displacement of [125I]+/-DOI from human recombinant 5-HT2B receptor at 10 uM after 60 mins by scintillation counting analysis relative to control
Details: not given

Compound	Activity
C/C=C/Cn1cc(-c2cc(OC)c(C(=O)N3CCOCC3)cc2OC)c2cc(C)[nH]c2c1=O	6%

Biological target: Bromodomain and WD repeat-containing protein 1 (Homo sapiens, UniProt Q9NSI6)
Test: Binding affinity to human partial length WDR9 bromodomain 2 (A1310 to E1430 residues) expressed in bacterial expression system by BROMOscan assay
Details: not given

Compound	Kd
C/C=C/Cn1cc(-c2cc(OC)c(C(=O)N3CCOCC3)cc2OC)c2cc(C)[nH]c2c1=O	> 5000 nM

Test system: not listed separately
Test: Cytotoxicity against human NCI-H2106 cells measured after 8 days
Format: functional, cell-based
Details: NCI-H2106, 192 h

Compound	IC50
C/C=C/Cn1cc(-c2cc(OC)c(C(=O)N3CCOCC3)cc2OC)c2cc(C)[nH]c2c1=O	2000 nM

Test system: MDA-MB-157
Test: Cytotoxicity against human MDA-MB-157 cells measured after 8 days
Format: functional, cell-based
Details: MDA-MB-157, 192 h

Compound	IC50
C/C=C/Cn1cc(-c2cc(OC)c(C(=O)N3CCOCC3)cc2OC)c2cc(C)[nH]c2c1=O	2000 nM

Biological target: T2, Myotonin-protein kinase (Homo sapiens) (UniProt Q09013)
T2 sequence (whole entry): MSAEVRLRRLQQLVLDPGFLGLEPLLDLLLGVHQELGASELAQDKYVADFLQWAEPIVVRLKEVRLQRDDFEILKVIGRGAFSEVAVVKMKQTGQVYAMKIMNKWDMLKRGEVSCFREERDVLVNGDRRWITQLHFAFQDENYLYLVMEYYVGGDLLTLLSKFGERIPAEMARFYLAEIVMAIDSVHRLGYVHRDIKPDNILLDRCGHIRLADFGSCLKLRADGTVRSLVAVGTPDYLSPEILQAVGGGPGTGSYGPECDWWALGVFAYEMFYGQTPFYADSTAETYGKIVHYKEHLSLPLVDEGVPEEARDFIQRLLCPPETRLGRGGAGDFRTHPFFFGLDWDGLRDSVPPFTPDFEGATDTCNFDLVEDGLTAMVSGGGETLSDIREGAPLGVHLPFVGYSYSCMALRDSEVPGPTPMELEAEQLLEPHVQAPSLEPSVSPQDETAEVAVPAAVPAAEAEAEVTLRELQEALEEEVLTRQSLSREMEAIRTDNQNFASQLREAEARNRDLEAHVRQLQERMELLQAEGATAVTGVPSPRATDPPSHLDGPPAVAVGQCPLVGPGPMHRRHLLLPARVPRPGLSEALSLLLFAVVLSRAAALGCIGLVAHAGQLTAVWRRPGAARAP
Test: Inhibition of DMPK (unknown origin) at 1 uM relative to control
Details: not given

Compound	inhibition
C/C=C/Cn1cc(-c2cc(OC)c(C(=O)N3CCOCC3)cc2OC)c2cc(C)[nH]c2c1=O	-4%

Biological target: Receptor-type tyrosine-protein kinase FLT3 (Homo sapiens) (UniProt P36888)
Sequence (P36888 whole entry): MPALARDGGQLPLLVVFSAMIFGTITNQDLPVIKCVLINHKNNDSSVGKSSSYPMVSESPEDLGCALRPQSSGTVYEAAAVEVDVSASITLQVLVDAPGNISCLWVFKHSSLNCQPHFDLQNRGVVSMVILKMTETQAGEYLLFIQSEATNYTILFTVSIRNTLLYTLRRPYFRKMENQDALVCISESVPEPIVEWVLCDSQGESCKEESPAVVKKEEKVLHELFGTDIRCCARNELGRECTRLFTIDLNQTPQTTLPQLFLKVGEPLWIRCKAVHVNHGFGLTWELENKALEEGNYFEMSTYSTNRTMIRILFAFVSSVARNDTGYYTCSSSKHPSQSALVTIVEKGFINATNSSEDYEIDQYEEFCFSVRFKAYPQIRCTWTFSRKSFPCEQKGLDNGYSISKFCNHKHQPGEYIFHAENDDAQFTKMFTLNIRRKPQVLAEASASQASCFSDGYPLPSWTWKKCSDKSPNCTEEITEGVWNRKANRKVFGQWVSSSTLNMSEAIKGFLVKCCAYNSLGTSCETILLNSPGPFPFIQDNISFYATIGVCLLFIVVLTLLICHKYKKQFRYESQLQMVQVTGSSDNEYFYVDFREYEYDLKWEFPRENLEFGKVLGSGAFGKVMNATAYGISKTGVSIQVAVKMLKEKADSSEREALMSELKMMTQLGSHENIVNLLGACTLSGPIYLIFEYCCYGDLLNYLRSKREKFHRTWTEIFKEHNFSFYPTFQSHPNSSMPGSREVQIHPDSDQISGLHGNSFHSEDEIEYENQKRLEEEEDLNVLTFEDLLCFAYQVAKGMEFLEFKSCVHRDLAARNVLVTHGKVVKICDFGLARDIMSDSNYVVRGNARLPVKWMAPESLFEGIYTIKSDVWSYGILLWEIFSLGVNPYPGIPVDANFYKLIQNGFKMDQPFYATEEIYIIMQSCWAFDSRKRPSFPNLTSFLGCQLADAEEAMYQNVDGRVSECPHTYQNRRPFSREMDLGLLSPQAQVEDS
Test: Inhibition of Flt3 (unknown origin) at 1 uM relative to control
Details: not given

Compound	inhibition
C/C=C/Cn1cc(-c2cc(OC)c(C(=O)N3CCOCC3)cc2OC)c2cc(C)[nH]c2c1=O	6%

Organism: Rattus norvegicus
Test: Displacement of [3H]flunitrazepam from rat brain central BZD at 10 uM after 60 mins by radioligand binding assay relative to control
Details: not given

Compound	Activity
C/C=C/Cn1cc(-c2cc(OC)c(C(=O)N3CCOCC3)cc2OC)c2cc(C)[nH]c2c1=O	86%

Test system: not listed separately
Test: Cytotoxicity against human OVCAR433 cells measured after 8 days
Format: functional, cell-based
Details: OVCAR433, 192 h

Compound	IC50
C/C=C/Cn1cc(-c2cc(OC)c(C(=O)N3CCOCC3)cc2OC)c2cc(C)[nH]c2c1=O	2000 nM

Test system: NCI-H292
Test: Cytotoxicity against human NCI-H292 cells measured after 8 days
Format: functional, cell-based
Details: NCI-H292, 192 h

Compound	IC50
C/C=C/Cn1cc(-c2cc(OC)c(C(=O)N3CCOCC3)cc2OC)c2cc(C)[nH]c2c1=O	2000 nM

Test system: NCI-H647
Test: Cytotoxicity against human NCI-H647 cells measured after 8 days
Format: functional, cell-based
Details: NCI-H647, 192 h

Compound	IC50
C/C=C/Cn1cc(-c2cc(OC)c(C(=O)N3CCOCC3)cc2OC)c2cc(C)[nH]c2c1=O	2000 nM

Test system: ABC-1
Test: Cytotoxicity against human ABC-1 cells measured after 8 days
Format: functional, cell-based
Details: ABC-1, 192 h

Compound	IC50
C/C=C/Cn1cc(-c2cc(OC)c(C(=O)N3CCOCC3)cc2OC)c2cc(C)[nH]c2c1=O	2000 nM

Test system: MX1
Test: Cytotoxicity against human MX1 cells measured after 8 days
Format: functional, cell-based
Details: MX1, 192 h

Compound	IC50
C/C=C/Cn1cc(-c2cc(OC)c(C(=O)N3CCOCC3)cc2OC)c2cc(C)[nH]c2c1=O	2000 nM

Test system: BEN
Test: Cytotoxicity against human BEN cells measured after 8 days
Format: functional, cell-based
Details: 192 h

Compound	IC50
C/C=C/Cn1cc(-c2cc(OC)c(C(=O)N3CCOCC3)cc2OC)c2cc(C)[nH]c2c1=O	2000 nM

Test system: NCI-H661
Test: Cytotoxicity against human NCI-H661 cells measured after 8 days
Format: functional, cell-based
Details: NCI-H661, 192 h

Compound	IC50
C/C=C/Cn1cc(-c2cc(OC)c(C(=O)N3CCOCC3)cc2OC)c2cc(C)[nH]c2c1=O	2000 nM

Test system: LS-1034
Test: Cytotoxicity against human LS1034 cells measured after 8 days
Format: functional, cell-based
Details: LS-1034, 192 h

Compound	IC50
C/C=C/Cn1cc(-c2cc(OC)c(C(=O)N3CCOCC3)cc2OC)c2cc(C)[nH]c2c1=O	2000 nM

Test system: NCI-H727
Test: Cytotoxicity against human NCI-H727 cells measured after 8 days
Format: functional, cell-based
Details: NCI-H727, 192 h

Compound	IC50
C/C=C/Cn1cc(-c2cc(OC)c(C(=O)N3CCOCC3)cc2OC)c2cc(C)[nH]c2c1=O	2000 nM

Test system: NCI-H1155
Test: Cytotoxicity against human NCI-H1155 cells measured after 8 days
Format: functional, cell-based
Details: NCI-H1155, 192 h

Compound	IC50
C/C=C/Cn1cc(-c2cc(OC)c(C(=O)N3CCOCC3)cc2OC)c2cc(C)[nH]c2c1=O	2000 nM

Test system: not listed separately
Test: Cytotoxicity against human OCI-M2 cells measured after 8 days
Format: functional, cell-based
Details: OCI-M2, 192 h

Compound	IC50
C/C=C/Cn1cc(-c2cc(OC)c(C(=O)N3CCOCC3)cc2OC)c2cc(C)[nH]c2c1=O	2000 nM

Test system: NCI-H520
Test: Cytotoxicity against human NCI-H520 cells measured after 8 days
Format: functional, cell-based
Details: NCI-H520, 192 h

Compound	IC50
C/C=C/Cn1cc(-c2cc(OC)c(C(=O)N3CCOCC3)cc2OC)c2cc(C)[nH]c2c1=O	2000 nM

Test system: MEL-HO
Test: Cytotoxicity against human MEL-HO cells measured after 8 days
Format: functional, cell-based
Details: 192 h

Compound	IC50
C/C=C/Cn1cc(-c2cc(OC)c(C(=O)N3CCOCC3)cc2OC)c2cc(C)[nH]c2c1=O	2000 nM
